Assay results published in US9137996B2, “Fungicidal alkyl- and aryl-substituted 2[-2-chloro-4-(dihalo-phenoxy)-phenyl]-1-[1,2,4]triazol-1-yl-ethanol compounds” (BASF SE, priority 2011, dated 2015).

Test system: Phakopsora pachyrhizi
Assay: Protective control of soy bean rust on soy beans (Phakpa P1), green house
Format: in vivo, Phakopsora pachyrhizi on soy bean seedlings
Conditions: 300 ppm active substance, sprayed 1 day before inoculation, assessed after fourteen days; untreated plants 90% infected
Protocol: The spray solutions were prepared in several steps:
The stock solution were prepared: a mixture of acetone and/or dimethylsulfoxide and the wetting agent/emulsifier Wettol, which is based on ethoxylated alkylphenoles, in a relation (volume) solvent-emulsifier of 99 to 1 was added to 25 mg of the compound to give a total of 5 ml. Water was then added to total volume of 100 ml. This stock solution was diluted with the described solvent-emulsifier-water mixture to the given concentration. 1. Protective control of soy bean rust on soy beans caused by Phakopsora pachyrhizi (Phakpa P1)
Leaves of pot-grown soy bean seedlings were sprayed to run-off with an aqueous suspension, containing the concentration of active ingredient or their mixture as described below. The plants were allowed to air-dry. The trial plants were cultivated for 1 day in a greenhouse chamber at 23-27° C. and a relative humidity between 60 and 80%.Then the plants were inoculated with spores of Phakopsora pachyrhizi. To ensure the success the artificial inoculation, the plants were transferred to a humid chamber with a relative humidity of about 95% and 20 to 24 C for 24 h. The trial plants were cultivated for fourteen days in a greenhouse chamber at 23-27° C. and a relative humidity between 60 and 80%. The extent of fungal attack on the leaves was visually assessed as % diseased leaf area.

CC(O)(Cn1cncn1)c1ccc(Oc2ccc(Cl)cc2Cl)cc1Cl (stereo not shown) [I-1, 2-[2-chloro-4-(2,4-dichlorophenoxy)phenyl]-1-(1,2,4-triazol-1-yl)propan-2-ol]
infection (extent of fungal attack, % diseased leaf area): 10%
